The text below walks through data of US10927123B2, “Modulators of the beta-3 adrenergic receptor useful for the treatment or prevention of disorders related thereto” (Arena Pharmaceuticals, Inc., priority 2016, dated 2021).

For orientation: IC50 means the concentration that gives 50% inhibition.

The experiment has as its target Beta-3 Adrenergic Receptor (Homo sapiens (Human), UniProt P13945). Description: HTRF cAMP antagonist assay (IC50 determination). Format: cell-based. Particulars: CHO-K1 cells stably expressing recombinant receptor; antagonism of isoproterenol at EC90; cAMP readout. Put shortly: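 Antagonist mode: isoproterenol at its predetermined EC90 added after compound to recombinant CHO-K1 cells in IBMX-containing PBS, 1 h, room temperature. Compounds tested as 5-fold, 10-point dilutions, top final typically 10 or 100 μM. HTRF signal converted to cAMP via standard curve, giving IC50.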

Sequence of Beta-3 Adrenergic Receptor (P13945 whole entry, species assumed): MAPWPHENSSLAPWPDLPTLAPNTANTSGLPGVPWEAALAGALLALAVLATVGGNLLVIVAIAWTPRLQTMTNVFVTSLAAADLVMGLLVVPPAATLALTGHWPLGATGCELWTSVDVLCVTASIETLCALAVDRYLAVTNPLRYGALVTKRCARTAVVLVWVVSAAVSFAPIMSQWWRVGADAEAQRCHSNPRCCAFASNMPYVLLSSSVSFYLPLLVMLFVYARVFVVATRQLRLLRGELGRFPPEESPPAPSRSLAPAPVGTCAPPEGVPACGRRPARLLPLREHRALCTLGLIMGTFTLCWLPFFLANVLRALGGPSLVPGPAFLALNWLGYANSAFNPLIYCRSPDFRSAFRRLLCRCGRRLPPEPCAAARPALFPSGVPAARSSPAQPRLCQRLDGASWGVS

With `CN1CCOc2ncc(S(=O)(=O)N3CCC4(CC3)C[C@@H](NC[C@H](O)COc3cccc(S(=O)(=O)CCO)c3)CO4)cc21` [Compound 151, (S)-1-(3-(2-hydroxyethylsulfonyl)phenoxy)-3-((R)-8-(1-methyl-2,3-dihydro-1H-pyrido[2,3-b][1,4]oxazin-7-ylsulfonyl)-1-oxa-8-azaspiro[4.5]decan-3-ylamino)propan-2-ol], the IC50 is 40.8 nM.
As for `NCc1ccc(-c2ccc(F)c(S(=O)(=O)N3CCC4(CC3)C[C@H](NC[C@H](O)COc3cccc(S(=O)(=O)C5(CO)CC5)c3)CO4)c2)cc1` [Compound 162, (S)-1-((S)-8-(4′-(aminomethyl)-4-fluorobiphenyl-3-ylsulfonyl)-1-oxa-8-azaspiro[4.5]decan-3-ylamino)-3-(3-(1-(hydroxymethyl)cyclopropylsulfonyl)phenoxy)propan-2-ol], the figure is 29.5 nM; as for `O=S(=O)(c1cnc2ccccc2c1)N1CCC2(CC1)C[C@@H](NC[C@H](O)COc1cccc(S(=O)(=O)C(F)(F)CO)c1)CO2` [Compound 130, (S)-1-(3-(1,1-difluoro-2-hydroxyethylsulfonyl)phenoxy)-3-((R)-8-(quinolin-3-ylsulfonyl)-1-oxa-8-azaspiro[4.5]decan-3-ylamino)propan-2-ol], 12 nM.
With `Cc1c(-c2ccc(CN)cc2)cccc1S(=O)(=O)N1CCC2(CC1)C[C@@H](NC[C@H](O)COc1cccc(S(=O)(=O)C3(CO)CC3)c1)CO2` [Compound 203, (S)-1-((R)-8-(4′-(aminomethyl)-2-methylbiphenyl-3-ylsulfonyl)-1-oxa-8-azaspiro[4.5]decan-3-ylamino)-3-(3-(1-(hydroxymethyl)cyclopropylsulfonyl)phenoxy)propan-2-ol] the figure was 1110 nM; with `CS(=O)(=O)c1cccc(OC[C@@H](O)CNC2COC3(CCN(S(=O)(=O)c4ccc5[nH]cnc5c4)CC3)C2)c1` (stereo partly drawn) [Compound 76, (2S)-1-(8-(1H-benzo[d]imidazol-5-ylsulfonyl)-1-oxa-8-azaspiro[4.5]decan-3-ylamino)-3-(3-(methylsulfonyl)phenoxy)propan-2-ol], 35.9 nM; with `CS(=O)(=O)c1cccc(OC[C@@H](O)CNC2COC3(CCN(S(=O)(=O)c4ccc5c(c4)CCCC5)CC3)C2)c1` (stereo partly drawn) [Compound 29, (2S)-1-(3-(methylsulfonyl)phenoxy)-3-(8-(5,6,7,8-tetrahydronaphthalen-2-ylsulfonyl)-1-oxa-8-azaspiro[4.5]decan-3-ylamino)propan-2-ol], 16.1 nM.
With `CC(C)S(=O)(=O)c1cccc(OC[C@@H](O)CN[C@H]2COC3(CCN(S(=O)(=O)c4cnc5ccccc5c4)CC3)C2)c1` [Compound 119, (S)-1-(3-(isopropylsulfonyl)phenoxy)-3-((R)-8-(quinolin-3-ylsulfonyl)-1-oxa-8-azaspiro[4.5]decan-3-ylamino)propan-2-ol] the figure was 11.6 nM; with `O=S(=O)(c1cccc(OC[C@@H](O)CN[C@H]2COC3(CCN(S(=O)(=O)c4cnc5ccccc5c4)CC3)C2)c1)C1CCC1` [Compound 138, (S)-1-(3-(cyclobutylsulfonyl)phenoxy)-3-((R)-8-(quinolin-3-ylsulfonyl)-1-oxa-8-azaspiro[4.5]decan-3-ylamino)propan-2-ol], 20.4 nM; with `O=S(=O)(CCO)c1cccc(OC[C@@H](O)CN[C@@H]2COC3(CCN(S(=O)(=O)c4ccc5ccccc5c4)CC3)C2)c1` [Compound 34, (S)-1-(3-(2-hydroxyethylsulfonyl)phenoxy)-3-((S)-8-(naphthalen-2-ylsulfonyl)-1-oxa-8-azaspiro[4.5]decan-3-ylamino)propan-2-ol], 31.2 nM.
As for `COc1ccc(S(=O)(=O)N2CCC3(CC2)C[C@H](NC[C@H](O)COc2cccc(S(=O)(=O)C4(CO)CC4)c2)CO3)cc1-c1ccc(CN)cc1` [Compound 207, (S)-1-((S)-8-(4′-(aminomethyl)-6-methoxybiphenyl-3-ylsulfonyl)-1-oxa-8-azaspiro[4.5]decan-3-ylamino)-3-(3-(1-(hydroxymethyl)cyclopropylsulfonyl)phenoxy)propan-2-ol], the IC50 was 51.1 nM.
With `CC(C)Oc1ccc(-c2ccc(CN)cc2)cc1S(=O)(=O)N1CCC2(CC1)C[C@H](NC[C@H](O)COc1cccc(S(=O)(=O)C3CC3)c1)CO2` [Compound 166, (S)-1-((S)-8-(4′-(aminomethyl)-4-isopropoxybiphenyl-3-ylsulfonyl)-1-oxa-8-azaspiro[4.5]decan-3-ylamino)-3-(3-(cyclopropylsulfonyl)phenoxy)propan-2-ol] the figure was 51.2 nM; with `CC(C)CCS(=O)(=O)c1cccc(OC[C@@H](O)CNC2COC3(CCN(S(=O)(=O)c4ccc5ccccc5c4)CC3)C2)c1` (stereo partly drawn) [Compound 11, (2S)-1-(3-(isopentylsulfonyl)phenoxy)-3-(8-(naphthalen-2-ylsulfonyl)-1-oxa-8-azaspiro[4.5]decan-3-ylamino)propan-2-ol], 35.5 nM; with `COCCNCc1ccc(-c2cccc(S(=O)(=O)N3CCC4(CC3)C[C@H](NC[C@H](O)COc3cccc(S(=O)(=O)C5(CO)CC5)c3)CO4)c2)cc1` [Compound 247, (S)-1-(3-(1-(hydroxymethyl)cyclopropylsulfonyl)phenoxy)-3-((S)-8-(4′-((2-methoxyethylamino)methyl)biphenyl-3-ylsulfonyl)-1-oxa-8-azaspiro[4.5]decan-3-ylamino)propan-2-ol], 33.5 nM.
As for `CN1CCOc2ncc(S(=O)(=O)N3CCC4(CC3)C[C@@H](NC[C@H](O)COc3cccc(S(=O)(=O)CC(N)=O)c3)CO4)cc21` [Compound 159, 2-(3-((S)-2-hydroxy-3-((R)-8-(1-methyl-2,3-dihydro-1H-pyrido[2,3-b][1,4]oxazin-7-ylsulfonyl)-1-oxa-8-azaspiro[4.5]decan-3-ylamino)propoxy)phenylsulfonyl)acetamide], the figure is 178 nM.
As for `O=S(=O)(c1cnc(Cl)c(Br)c1)N1CCC2(CC1)C[C@@H](NC[C@H](O)COc1cccc(S(=O)(=O)C3(CO)CC3)c1)CO2` [Compound 221, (S)-1-((R)-8-(5-bromo-6-chloropyridin-3-ylsulfonyl)-1-oxa-8-azaspiro[4.5]decan-3-ylamino)-3-(3-(1-(hydroxymethyl)cyclopropylsulfonyl)phenoxy)propan-2-ol], the figure is 20.6 nM; as for `CCS(=O)(=O)c1cccc(OC[C@@H](O)CN[C@H]2COC3(CCN(S(=O)(=O)c4ccc5ccccc5c4)CC3)C2)c1` [Compound 26, (S)-1-(3-(ethylsulfonyl)phenoxy)-3-((R)-8-(naphthalen-2-ylsulfonyl)-1-oxa-8-azaspiro[4.5]decan-3-ylamino)propan-2-ol], 5.25 nM.
With `Cc1cc(-c2cccc(S(=O)(=O)N3CCC4(CC3)CC(NC[C@H](O)COc3cccc(S(C)(=O)=O)c3)CO4)c2)ccn1` (stereo partly drawn) [Compound 44, (2S)-1-(8-(3-(2-methylpyridin-4-yl)phenylsulfonyl)-1-oxa-8-azaspiro[4.5]decan-3-ylamino)-3-(3-(methylsulfonyl)phenoxy)propan-2-ol], the IC50 is 21.5 nM.
With `Cc1c(S(=O)(=O)N2CCC3(CC2)C[C@@H](NC[C@H](O)COc2cccc(S(=O)(=O)CC(N)=O)c2)CO3)cnc2c1N(C)CCO2` [Compound 276, 2-(3-((S)-3-((R)-8-(1,8-dimethyl-2,3-dihydro-1H-pyrido[2,3-b][1,4]oxazin-7-ylsulfonyl)-1-oxa-8-azaspiro[4.5]decan-3-ylamino)-2-hydroxypropoxy)phenylsulfonyl)acetamide] the figure was 1810 nM.
With `O=S(=O)(CCO)c1cccc(OC[C@@H](O)CN[C@H]2COC3(CCN(S(=O)(=O)c4ccc5ccccc5c4)CC3)C2)c1` [Compound 35, (S)-1-(3-(2-hydroxyethylsulfonyl)phenoxy)-3-((R)-8-(naphthalen-2-ylsulfonyl)-1-oxa-8-azaspiro[4.5]decan-3-ylamino)propan-2-ol] the figure was 20.3 nM; with `O=S(=O)(CC1CC1(F)F)c1cccc(OC[C@@H](O)CNC2COC3(CCN(S(=O)(=O)c4ccc5ccccc5c4)CC3)C2)c1` (stereo partly drawn) [Compound 17, (2S)-1-(3-((2,2-difluorocyclopropyl)methylsulfonyl)phenoxy)-3-(8-(naphthalen-2-ylsulfonyl)-1-oxa-8-azaspiro[4.5]decan-3-ylamino)propan-2-ol], 38.8 nM; with `NCc1ccc(-c2cc(S(=O)(=O)N3CCC4(CC3)C[C@@H](NC[C@H](O)COc3cccc(S(=O)(=O)C5(CO)CC5)c3)CO4)ccc2F)cc1` [Compound 216, (S)-1-((R)-8-(4′-(aminomethyl)-6-fluorobiphenyl-3-ylsulfonyl)-1-oxa-8-azaspiro[4.5]decan-3-ylamino)-3-(3-(1-(hydroxymethyl)cyclopropylsulfonyl)phenoxy)propan-2-ol], 26.4 nM.
As to `CC(C)(C)NCc1ccc(-c2cccc(S(=O)(=O)N3CCC4(CC3)C[C@H](NC[C@H](O)COc3cccc(S(=O)(=O)C5(CO)CC5)c3)CO4)c2)cc1` [Compound 240, (S)-1-((S)-8-(4′-((tert-butylamino)methyl)biphenyl-3-ylsulfonyl)-1-oxa-8-azaspiro[4.5]decan-3-ylamino)-3-(3-(1-(hydroxymethyl)cyclopropylsulfonyl)phenoxy)propan-2-ol], the IC50 was 31.7 nM.
As for `Cn1cc(-c2cncc(S(=O)(=O)N3CCC4(CC3)C[C@@H](NC[C@H](O)COc3cccc(S(=O)(=O)CCO)c3)CO4)c2)cn1` [Compound 90, (S)-1-(3-(2-hydroxyethylsulfonyl)phenoxy)-3-((R)-8-(5-(1-methyl-1H-pyrazol-4-yl)pyridin-3-ylsulfonyl)-1-oxa-8-azaspiro[4.5]decan-3-ylamino)propan-2-ol], the figure is 354 nM; as for `CS(=O)(=O)c1cccc(OC[C@@H](O)CNC2COC3(CCN(S(=O)(=O)c4ccc5ncccc5c4)CC3)C2)c1` (stereo partly drawn) [Compound 75, (2S)-1-(3-(methylsulfonyl)phenoxy)-3-(8-(quinolin-6-ylsulfonyl)-1-oxa-8-azaspiro[4.5]decan-3-ylamino)propan-2-ol], 26.7 nM.
